Experiments:
Format in all cases: cell-based, human
[1] = test system: interaction between p53 and FOXO4; assay: in situ PLA (proximity ligation assay) of the physical binding between p53 and FOXO4 in H2O2-treated HaCaT cells; details: H2O2 200 μM, peptide 20 μM, 1 hour; for inhibition of the interaction between p53 and FOXO4 (PLA signals): in comparison with the control group
Method: After treating cells with the peptides of the present invention, the effects thereof on the physical binding between p53 and FOXO4 were evaluated through an in situ PLA (proximity ligation assay) method. HaCaT cells (human keratinocytes, CLS) were added at 4.5×10^4 cells per well, along with a DMEM containing 10% fetal bovine serum, to each well of a 24-well microplate and then cultured at 37° C. in a 5% CO2 incubator for 24 hours. H2O2 and the peptide solutions of Example 2 and H2O2 were added thereto so that the concentrations of H2O2 and each peptide in the medium were 200 μM and 20 μM respectively, followed by incubating for 1 hour under the same condition. As a control group, an untreated group (indicated by “control” in FIG. 1) and a group treated with H2O2 alone (indicated by “-” in FIG. 1) were used. The cells of each well were washed with PBS, fixed by treating with 2% formaldehyde for 15 minutes, and then treated with 0.1% TritonX-100 for 5 minutes to increase antibody permeability into the cells. Anti-p53 polyclonal antibody (Abcam, UK) and anti-FOXO4 polyclonal antibody (Santa Cruz, Calif., USA) were added thereto. After the PLA probe was added thereto using the in situ PLA kit (Sigma-Aldrich), hybridization, ligation, amplification and mounting steps were carried out according to the manufacturer's protocol. Each physical interaction between p53 and FOXO4 was quantified by measuring the luminescence signals (PLA signals) detected in each cell with a confocal laser microscope (Olympus fluoview FW1000; Olympus, Tokyo, Japan).

[2] = test system: interaction between p53 and FOXO4; assay: in situ PLA of p53-FOXO4 binding with ERK inhibitor (PD98059) and SHP2 inhibitor (NSC878777) in HaCaT cells; details: H2O2 200 μM, 1 hour, FIG. 2
Method: After treating cells with the peptide of the present invention (the peptide of SEQ ID NO: 3), H2O2, a ERK inhibitor (PD98059), and a SHP2 inhibitor (NSC878777), the effects thereof on the physical binding between p53 and FOXO4 were evaluated through an in situ PLA (proximity ligation assay) method. HaCaT cells (human keratinocytes, CLS) were added at 4.5×10^4 cells per well, along with a DMEM containing 10% fetal bovine serum, to each well of a 24-well microplate and then cultured at 37° C. in a 5% CO2 incubator for 24 hours. The cells were treated with H2O2 (200 μM) and the peptide of SEQ ID NO: 3 (20 μM); or PD98059 (10 μM) or NSC878777 (10 μM) was additionally treated to the cells treated with H2O2 (200 μM) and the peptide of SEQ ID NO: 3 (20 μM), followed by incubating for 1 hour under the same condition. As a control group, an untreated group (indicated by “control” in FIG. 2) and a group treated with H2O2 alone were used. The cells of each well were washed with PBS, fixed by treating with 2% formaldehyde for 15 minutes, and then treated with 0.1% TritonX-100 for 5 minutes to increase antibody permeability into the cells. […] Each physical interaction between p53 and FOXO4 was quantified by measuring the luminescence signals (PLA signals) detected in each cell with a confocal laser microscope (Olympus fluoview FW1000; Olympus, Tokyo, Japan).

[3] = test system: senescent ARPE-19 cells (retinal pigment epithelial cells); assay: apoptosis of H2O2-induced senescent cells, X-Gal (Senescence β-Galactosidase) staining, number of remaining senescent cells; details: ARPE-19, H2O2 25 μM 24 hours, then peptide 0.2 μM, 2 μM and 20 μM 24 hours; versus H2O2 alone ("-" group); FIGS. 3 and 4
Method: In order to evaluate the activity on the apoptosis of senescent cells by the treatment with the peptide of the present invention (the peptide of SEQ ID NO: 3) for 24 hours after inducing senescence by treating cells with H2O2, the X-Gal staining was carried out to measure the number of the remaining senescent cells. ARPE-19 cells (retinal pigment epithelial cells) were added at the density of 80% per well, along with a DMEM containing 10% fetal bovine serum, to each well of a 12-well microplate and then cultured at 37° C. in a 5% CO2 incubator for 24 hours. H2O2 was added thereto so that the concentration thereof in the medium was 25 μM, followed by incubating for 24 hours under the same condition. Thereafter, the cells in each well were washed with PBS and the peptide solution of Example 2 was added thereto so that the concentration of the peptide of SEQ ID NO: 3 was 0.2 μM, 2 μM, and 20 μM respectively, followed by incubating for 24 hours under the same condition. As a control group, an untreated group (indicated as “control” in FIGS. 3 and 4) and a group treated with H2O2 alone (indicated by “-” in FIGS. 3 and 4) were used. […] The bluish green color development detected in the senescence-induced cells was measured with a phase-contrast microscope (Olympus, Tokyo, Japan), and each number of senescent cells was quantified.

## Leu-Trp-Asp (LWD) [Pep 19]
[1]; FIG. 1
  inhibition of the interaction between p53 and FOXO4 (PLA signals): remarkably inhibited
[1]; FIG. 1, listed as SEQ ID NO: 19
  inhibition of the interaction between p53 and FOXO4 (PLA signals): particularly excellent activity

## Leu-Gly-Asp (LGD) [Pep 3]
[1]; FIG. 1
  inhibition of the interaction between p53 and FOXO4 (PLA signals): remarkably inhibited
[1]; FIG. 1, listed as SEQ ID NO: 3
  inhibition of the interaction between p53 and FOXO4 (PLA signals): particularly excellent activity
[2]; peptide 20 μM plus PD98059 10 μM or NSC878777 10 μM
  dependence of the peptide's inhibitory signal on ERK and SHP2: dependent on ERK and SHP2 activation
[2]; peptide 20 μM
  inhibition of the interaction between p53 and FOXO4 (PLA signals): significantly inhibited
[3]
  induction of apoptosis of senescent cells (number of remaining senescent cells): significantly induced the apoptosis of senescent cells

## Leu-Cys-Asp (LCD) [Pep 13]
[1]; FIG. 1
  inhibition of the interaction between p53 and FOXO4 (PLA signals): remarkably inhibited
[1]; FIG. 1, listed as SEQ ID NO: 13
  inhibition of the interaction between p53 and FOXO4 (PLA signals): particularly excellent activity

## Leu-Tyr-Asp (LYD) [Pep 9]
[1]; FIG. 1
  extent of inhibition of the interaction between p53 and FOXO4 in comparison with the control group (PLA signals): two or more times
  inhibition of the interaction between p53 and FOXO4 (PLA signals): remarkably inhibited
[1]; FIG. 1, listed as SEQ ID NO: 9
  inhibition of the interaction between p53 and FOXO4 (PLA signals): particularly excellent activity

## Leu-Phe-Asp (LFD) [Pep 11]
[1]; FIG. 1
  extent of inhibition of the interaction between p53 and FOXO4 in comparison with the control group (PLA signals): two or more times
  inhibition of the interaction between p53 and FOXO4 (PLA signals): remarkably inhibited
[1]; FIG. 1, listed as SEQ ID NO: 11
  inhibition of the interaction between p53 and FOXO4 (PLA signals): particularly excellent activity

## Leu-Glu-Asp (LED) [Pep 1]
[1]; FIG. 1
  extent of inhibition of the interaction between p53 and FOXO4 in comparison with the control group (PLA signals): two or more times
  inhibition of the interaction between p53 and FOXO4 (PLA signals): remarkably inhibited
[1]; FIG. 1, listed as SEQ ID NO: 1
  inhibition of the interaction between p53 and FOXO4 (PLA signals): particularly excellent activity

## Leu-Leu-Asp (LLD) [Pep 8]
[1]; FIG. 1
  inhibition of the interaction between p53 and FOXO4 (PLA signals): remarkably inhibited
[1]; FIG. 1, listed as SEQ ID NO: 8
  inhibition of the interaction between p53 and FOXO4 (PLA signals): particularly excellent activity

## Leu-Lys-Asp (LKD) [Pep 7]
[1]; FIG. 1
  inhibition of the interaction between p53 and FOXO4 (PLA signals): remarkably inhibited
[1]; FIG. 1, listed as SEQ ID NO: 7
  inhibition of the interaction between p53 and FOXO4 (PLA signals): particularly excellent activity

## Leu-Ala-Asp (LAD) [Pep 4]
[1]; FIG. 1
  inhibition of the interaction between p53 and FOXO4 (PLA signals): remarkably inhibited
[1]; FIG. 1, listed as SEQ ID NO: 4
  inhibition of the interaction between p53 and FOXO4 (PLA signals): particularly excellent activity

## Leu-Thr-Asp (LTD) [Pep 18]
[1]; FIG. 1
  extent of inhibition of the interaction between p53 and FOXO4 in comparison with the control group (PLA signals): two or more times
  inhibition of the interaction between p53 and FOXO4 (PLA signals): remarkably inhibited
[1]; FIG. 1, listed as SEQ ID NO: 18
  inhibition of the interaction between p53 and FOXO4 (PLA signals): particularly excellent activity

## Leu-Gln-Asp (LQD) [Pep 5]
[1]; FIG. 1
  inhibition of the interaction between p53 and FOXO4 (PLA signals): remarkably inhibited
[1]; FIG. 1, listed as SEQ ID NO: 5
  inhibition of the interaction between p53 and FOXO4 (PLA signals): particularly excellent activity

## Leu-Val-Asp (LVD) [Pep 20]
[1]; FIG. 1
  extent of inhibition of the interaction between p53 and FOXO4 in comparison with the control group (PLA signals): two or more times
  inhibition of the interaction between p53 and FOXO4 (PLA signals): remarkably inhibited
[1]; FIG. 1, listed as SEQ ID NO: 20
  inhibition of the interaction between p53 and FOXO4 (PLA signals): particularly excellent activity

## Leu-Ile-Asp (LID) [Pep 15]
[1]; FIG. 1
  extent of inhibition of the interaction between p53 and FOXO4 in comparison with the control group (PLA signals): two or more times
  inhibition of the interaction between p53 and FOXO4 (PLA signals): remarkably inhibited
[1]; FIG. 1, listed as SEQ ID NO: 15
  inhibition of the interaction between p53 and FOXO4 (PLA signals): particularly excellent activity

## Leu-His-Asp (LHD) [Pep 14]
[1]; FIG. 1
  extent of inhibition of the interaction between p53 and FOXO4 in comparison with the control group (PLA signals): two or more times
  inhibition of the interaction between p53 and FOXO4 (PLA signals): remarkably inhibited
[1]; FIG. 1, listed as SEQ ID NO: 14
  inhibition of the interaction between p53 and FOXO4 (PLA signals): particularly excellent activity

## Leu-Pro-Asp (LPD) [Pep 17]
[1]; FIG. 1
  extent of inhibition of the interaction between p53 and FOXO4 in comparison with the control group (PLA signals): two or more times
  inhibition of the interaction between p53 and FOXO4 (PLA signals): remarkably inhibited
[1]; FIG. 1, listed as SEQ ID NO: 17
  inhibition of the interaction between p53 and FOXO4 (PLA signals): particularly excellent activity

Source: US20230023726A1, “PHARMACEUTICAL COMPOSITION COMPRISING PEPTIDE THAT INHIBITS INTERACTION OF P53 AND FOXO4” (SUPADELIXIR INC., priority 2019, published 2023)
